What was measured:
hIL17 = assay: IL-17 release from differentiated primary human T-cells (IL-17A HTRF assay); format: cell-based; settings: inhibition of IL-17A levels; primary human CD4+ T cells differentiated into Th17 cells, 46-hour incubation
How it was run: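 Cryopreserved primary human CD4+ T cells were activated with anti-CD3/CD28 beads and driven to Th17 with TGF-β, IL-6, IL-23 and IL-1β in the presence of compound (2-500 nM or 4-1000 nM) for 46 h at 37° C. Supernatant IL-17A was quantified by HTRF against a standard curve and normalized to DMSO. IC50s came from variable-slope fits, with viability read by CyQuant.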

[1] = tested on: IFNγ-induced Nitric Oxide production; assay: Nitric oxide production assay in RAW 264.7 mouse macrophages; format: cell-based; settings: RAW264.7, suppression of IFNγ-induced NO production normalized to cell viability (WST-1), RAW 264.7, 24 hours IFNγ
How it was run: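 Cells pre-treated 2 h with compound (0.4-200 nM or 2-1000 nM) in RPMI 1640 + 0.5% FBS, then stimulated with recombinant mouse IFNγ for 24 h at 37 °C. Nitrite measured by Griess reagent, viability by WST-1; IC50 from NO suppression normalized to viability and to DMSO/IFNγ controls.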

human RORγ = biological target: T1, human RORγ (Homo sapiens, UniProt P51449); assay: RORγ assay (GAL4-RORγ hybrid luciferase reporter, inverse-agonist activity); format: cell-based; settings: GAL4-RORγ hybrid reporter cells, 23 hours
T1 sequence (P51449 269-508 limits assumed): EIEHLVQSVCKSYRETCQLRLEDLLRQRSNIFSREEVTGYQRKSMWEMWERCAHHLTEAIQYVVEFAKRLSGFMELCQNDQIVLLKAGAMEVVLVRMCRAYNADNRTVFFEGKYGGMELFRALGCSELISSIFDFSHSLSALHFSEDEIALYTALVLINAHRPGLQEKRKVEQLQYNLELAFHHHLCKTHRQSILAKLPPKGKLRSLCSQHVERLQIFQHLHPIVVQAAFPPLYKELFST
How it was run: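 Human cell line expressing GAL4-DBD/RORγ hybrid with UAS-driven luciferase, treated in triplicate with compound (0.4–200 nM or 2–1000 nM) for 23 h at 37 °C. Luminescence normalized to DMSO; viability measured in parallel by multiplex assay. IC50 for RORγ and viability by variable-slope nonlinear regression.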

NRF2 = assay: AREc32 luciferase reporter assay; format: cell-based, human; settings: EC2×: concentration required to increase GST ARE Luciferase reporter activity by 2-fold; AREc32 cells, 19 hours
How it was run: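 AREc32 cells (MCF-7 stably carrying eight rat GSTA2 ARE copies driving firefly luciferase) treated 19 h with compound (0.4–200 nM or 2–1000 nM), triplicate. Luminescence normalized to DMSO as fold-induction; variable-slope fit capped at 50-fold; EC2× = concentration giving 2-fold induction.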

CC1(C)CC[C@@]23CC[C@@]4(C)[C@]5(C)CC[C@@H]6[C@](C)(C=C(C#N)C(=O)[C@@]6(C)CO)C5=CC(=O)[C@]4(OC2=O)[C@@H]3C1 [Compound T31, (4R,4aR,6aR,6bS,8aS,12aR,12bS,14bS)-4-(hydroxymethyl)-4,6a,6b, 11,11,14b-hexamethyl-3,13,16-trioxo-4,4a,5,6,6a,6b,7,8,10,11,12,12a,13,14b-tetradecahydro-3H,9H-12b,8a-(epoxymethano)picene-2-carbonitrile] was tested, and the IC50 (hIL17) was 20 nM, the IC50 [1] was 10.5 nM and the IC50 (human RORγ) was 177 nM. For the same compound, the “EC2x: concentration giving 2-fold induction of ARE luciferase reporter” value (NRF2) was 21 nM.
With CC1(C)CC[C@@]23CC[C@@]4(C)[C@]5(C)CC[C@H]6C(C)(C)C(=O)C(C#N)=C[C@]6(C)C5=CC(=O)[C@]4(OC2=O)[C@@H]3C1 [Comparison Compound #6, reference compound] the IC50 (hIL17) was 15 nM, the IC50 [1] was 0.7 nM and the IC50 (human RORγ) was 159 nM. For the same compound, the “EC2x: concentration giving 2-fold induction of ARE luciferase reporter” value (NRF2) was 2 nM.
For COC(=O)[C@]12CCC(C)(C)C[C@H]1[C@H]1C(=O)C=C3[C@@]4(C)C=C(C#N)C(=O)[C@@](C)(CCO[Si](C)(C)C(C)(C)C)[C@@H]4CC[C@@]3(C)[C@]1(C)CC2 [Compound T18, methyl (4aS,6aR,6bS,8aR,9S,12aS,14aR,14bS)-9-(2-((tert-butyldimethylsilyl)oxy)ethyl)-11-cyano-2,2,6a,6b,9,12a-hexamethyl-10,14-dioxo-1,3,4,5,6,6a,6b,7,8,8a,9,10,12a,14,14a, 14b-hexadecahydropicene-4a(2H)-carboxylate], the IC50 (hIL17) was 24 nM, the IC50 [1] was 78.5 nM and the IC50 (human RORγ) was 583 nM. The “EC2x: concentration giving 2-fold induction of ARE luciferase reporter” value (NRF2) was 585 nM.
